Measurements taken from patent US20230257351A1, “SUBSTITUTED N-[…] HAVING P2X4 RECEPTOR ANTAGONISTIC ACTIVITY” (Bayer Aktiengesellschaft, priority 2020, published 2023).

What was measured:
rat P2X4 = molecular target: T1, rat P2X4 (Rattus norvegicus, UniProt P51577); test: FLIPR Method for Rat P2X4 1321N1 Astrocytoma Cells; type: cell-based; conditions: 1321N1 stably expressing rat P2X4; agonist MgATP 5 μM (EC80)
T1 construct: expressed in transfected cells
T1 sequence (P51577 1-388): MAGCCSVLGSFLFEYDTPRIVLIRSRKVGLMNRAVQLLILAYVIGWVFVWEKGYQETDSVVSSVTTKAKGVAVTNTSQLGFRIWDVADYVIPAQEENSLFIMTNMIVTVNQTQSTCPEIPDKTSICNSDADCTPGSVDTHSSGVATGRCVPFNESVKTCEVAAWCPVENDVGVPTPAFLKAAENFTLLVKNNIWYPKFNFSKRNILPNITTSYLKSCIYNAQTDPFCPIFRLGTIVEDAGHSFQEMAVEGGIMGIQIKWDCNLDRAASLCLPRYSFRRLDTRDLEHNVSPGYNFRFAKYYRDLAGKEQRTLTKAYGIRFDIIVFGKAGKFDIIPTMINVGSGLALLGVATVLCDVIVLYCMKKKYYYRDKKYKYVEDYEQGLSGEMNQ
Outline: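 1321N1 cells stably expressing rat P2X4, Fluo8-AM loaded; compounds (25 μM to 1 nM final, ten concentrations) preincubated 30 min at room temperature, then MgATP added at 5 μM (EC80). Calcium fluorescence read on FLIPR before and after agonist; triplicate data normalized to agonist control, four-parameter fit gives IC50.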

human P2X4 = molecular target: T2, human P2X4 (Homo sapiens, UniProt Q99571); test: Human P2X4 HEK Cell FLIPR Assay; type: cell-based; conditions: HEK293 stably expressing human P2X4, agonist Bz-ATP 3 μM (EC80); for IC50: read-out: Human P2X4 HEK Cells (FLIPR Assay) avg IC50
T2 construct: expressed in transfected cells
T2 sequence (Q99571 1-388): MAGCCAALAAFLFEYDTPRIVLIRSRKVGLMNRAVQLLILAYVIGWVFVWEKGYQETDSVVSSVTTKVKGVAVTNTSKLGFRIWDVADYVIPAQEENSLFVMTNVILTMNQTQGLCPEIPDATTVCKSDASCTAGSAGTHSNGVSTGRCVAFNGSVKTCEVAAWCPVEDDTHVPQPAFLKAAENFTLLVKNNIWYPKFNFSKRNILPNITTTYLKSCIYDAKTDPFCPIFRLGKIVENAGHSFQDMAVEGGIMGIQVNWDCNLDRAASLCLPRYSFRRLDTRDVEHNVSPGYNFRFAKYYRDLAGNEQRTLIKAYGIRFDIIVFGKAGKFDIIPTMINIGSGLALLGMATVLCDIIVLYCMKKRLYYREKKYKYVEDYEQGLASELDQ
Outline: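 HEK293 cells stably expressing human P2X4 were loaded with Fluo8-AM (30 min, 37 °C, HBSS/HEPES pH 7.4 with probenecid), then preincubated 30 min at room temperature with compound, 25 μM–1 nM final, 0.5% DMSO. Bz-ATP-evoked calcium fluorescence was read on FLIPR; data were normalized to agonist control and given a four-parameter fit for IC50.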

Structure (SMILES) | IC50 (rat P2X4) | Rat P2X4 1321N1 Astrocytoma Cells (FLIPR Assay) avg Efficacy (rat P2X4) | Human P2X4 HEK Cells (FLIPR Assay) avg Efficacy (human P2X4) | IC50 (human P2X4)
CC(=O)N(c1ccc(F)cc1)c1cc(NC(=O)Cc2c(Cl)cccc2Cl)ccn1 [Example 38, N-{4-[2-(2,6-dichlorophenyl)acetamido]pyridin-2-yl}-N-(4-fluorophenyl)acetamide] | 136 nM | 98% | 96% | 232 nM
CC(=O)N(c1cccc(F)c1)c1cc(NC(=O)Cc2ccc(F)cc2Cl)ccn1 [Example 55, N-{4-[2-(2-chloro-4-fluorophenyl)acetamido]pyridin-2-yl}-N-(3-fluorophenyl)acetamide] | 289 nM | 99% | 102% | 611 nM
CC(=O)N(c1cc(NC(=O)Cc2cccc(F)c2Cl)ccn1)c1ccc(F)cc1F [Example 128, N-{4-[2-(2-chloro-3-fluorophenyl)acetamido]pyridin-2-yl}-N-(2,4-difluorophenyl)acetamide] | 454 nM | 87% | 101% | 184 nM
CC(=O)N(c1ccccc1)c1cc(NC(=O)Cc2ccccc2Cl)ccn1 [Example 25, N-{4-[2-(2-chlorophenyl)acetamido]pyridin-2-yl}-N-phenylacetamide] | 851 nM | 100% | 100% | 524 nM
CC(=O)N(c1ccc(F)cc1)c1cc(NC(=O)Cc2c(F)cccc2Cl)ccn1 [Example 40, N-{4-[2-(2-chloro-6-fluorophenyl)acetamido]pyridin-2-yl}-N-(4-fluorophenyl)acetamide] | 194 nM | 75% | 90% | 308 nM
CC(=O)N(c1cccc(C#N)c1)c1cc(NC(=O)Cc2c(F)cccc2Cl)ccn1 [Example 15, N-{4-[2-(2-chloro-6-fluorophenyl)acetamido]pyridin-2-yl}-N-(3-cyanophenyl)acetamide] | 441 nM | 88% | 94% | 408 nM
CC(=O)N(c1ccc(C)cc1)c1cc(NC(=O)Cc2cccc(F)c2Cl)ccn1 [Example 45, N-{4-[2-(2-chloro-3-fluorophenyl)acetamido]pyridin-2-yl}-N-(4-methylphenyl)acetamide] | 1180 nM | 100% | 102% | 485 nM
CC(=O)N(c1cc(NC(=O)Cc2ccc(F)cc2Cl)ccn1)c1ccc(F)cc1F [Example 127, N-{4-[2-(2-chloro-4-fluorophenyl)acetamido]pyridin-2-yl}-N-(2,4-difluorophenyl)acetamide] | 261 nM | 72% | 97% | 283 nM
CC(=O)N(c1ccc(F)c(C#N)c1)c1cc(NC(=O)Cc2ccccc2Cl)ccn1 [Example 21, N-{4-[2-(2-chlorophenyl)acetamido]pyridin-2-yl}-N-(3-cyano-4-fluorophenyl)acetamide] | 374 nM | 90% | 91% | 343 nM
CCCC(=O)N(c1ccc(F)cc1)c1cc(NC(=O)Cc2c(Cl)cccc2Cl)ccn1 [Example 144, N-{4-[2-(2,6-dichlorophenyl)acetamido]pyridin-2-yl}-N-(4-fluorophenyl)butanamide] | 557 nM | 100% | 90% | 648 nM
CC(=O)N(c1ccc(F)c(F)c1)c1cc(NC(=O)Cc2cccc(C)c2C)ccn1 [Example 62, N-(3,4-difluorophenyl)-N-{4-[2-(2,3-dimethylphenyl)acetamido]pyridin-2-yl}acetamide] | 368 nM | 91% | 91% | 251 nM
